{
  "source": "paper PMC8395767",
  "about": "“Worsening of the Toxic Effects of (±)Cis-4,4′-DMAR Following Its Co-Administration with (±)Trans-4,4′-DMAR: Neuro-Behavioural, Physiological, Immunohistochemical and Metabolic Studies in Mice” (International Journal of Molecular Sciences, 2021)",
  "key": {"frontal cortex": {"tested_on": "frontal cortex", "assay": "Histology of brain (haematoxylin/eosin)", "format": "in vivo, mice", "conditions": "30 mg/kg, compared to controls", "excerpt": "Following the acute death or the sacrifice of the animals (after 5-h observation period by dislocation of the spine), brains were taken. These were fixed in 4% buffered formalin and then sampled and incorporated into the paraffin (Leica ASP300 processor, Histoline TEC2900 incorporator; Leica Microsystems Srl, Buccinasco, Milano, Italy). Subsequently, the cut (performed with the Leica HistoCore autocut microtome; Leica Microsystems Srl, Buccinasco, Milano, Italy) was designed to create sections with a thickness of 5 µm for each sample.\nFor histological investigations, the sections were stained with haematoxylin/eosin and then observed under optical microscope (Nikon Eclipse E90i; Nikon, Roma, Italy)."}, "mice [1]": {"tested_on": "mice", "assay": "Spontaneous and stimulated aggressiveness (bites of a grey cloth)", "format": "in vivo", "experimental": "(§1) The effects of (±)cis-4,4′-DMAR, (±)trans-4,4′-DMAR and their co-administration were investigated by a protocol widely used in studies of “safety pharmacology” for the preclinical characterization of new molecules in rodents. This protocol includes a series of observational behavioural tests carried out in a consecutive manner that monitor the animal responses up to 5 h after compound injections. In the present study, we reported the observation of physiological (sweating, salivation, core temperature) and neuro-behavioural (detection of psychomotor agitation, spontaneous and stimulated aggressiveness, convulsions) changes occurring in mice after injection of (±)cis-4,4′-DMAR, (±)trans-4,4′-DMAR and their co-administration. Before pharmacological treatment the mouse was placed on a square plate (30 cm× 30 cm) raised from the ground (20 cm) and left free to move on the plate for 10 min (habituation period). The animal was then injected with the vehicle, substances alone ((±)cis-4,4′-DMAR or (±)trans-4,4′-DMAR) or in cis + trans co-administration and placed on the plate. From this moment, the recording time of the physiological and neuro-behavioural responses started, and these were detected in 5-min sessions.\n(§2) After the first 5 min, the animal was removed from the plate; the body core temperature was then measured, and the aggression tests were performed. The 5-min observation period was repeated at 15–30–60–90–120–180–240–300. Psychomotor agitation in the mouse was not simply related to an increase in spontaneous locomotion itself, but by an “unusual hyperactivity” which was characterised by rapid and sudden horizontal displacements in all directions, sustained turning behaviour, involuntary falls from the high plate during the evaluation of the tests, stereotyped movements and rearing activity. Mouse sweating and salivation were reported only if present or not. The core temperature was determined using a probe (1 mm diameter) that was gently inserted after lubrication with liquid Vaseline into the rectum of the mouse (to about 2 cm) and left in position until the temperature stabilised (about 10 s). The probe was connected to a digital thermometer. Spontaneous aggressive response was measured based on the number of times a mouse bit a grey cloth put in front of its snout. During the test, each mouse was free to move within the cage. In the case of stimulated aggressiveness, each mouse was manually restrained and held in a supine position following which an object was brought near the mouth. For both spontaneous and stimulated aggressive behaviour tests, a grey cloth was placed in front of the nose of each mouse 10 consecutive times (score 0/10 not aggressive, score 10/10 very aggressive). Convulsions were defined as a loss of righting reflexes for at least 5 s, combined with the presence of body tremors and clonic or tonic limb movements. Deaths caused by 4-4’-DMAR injection occurring during the observation period (5 h) were also reported as frequency (%) and time of death (min). Experiments were conducted inside the LARP (Centralised Preclinical Research Laboratory, University of Ferrara, Ferrara, Italy) in a thermo-stated (temperature 20–22 °C, humidity about 45–55%) and light controlled (about 150 lux) room, in which there was a background noise of about 40 ± 4 dB. The experiments, conducted in blind by trained observers working together in pairs, were videotaped and eventually analysed off-line by a different trained operator. The experiments were performed between 8:30 a.m. and 2:00 p.m.\n(§3) Sweating and salivation were expressed as frequency (e.g., % of animals that developed symptoms); psychomotor agitation was expressed as frequency (% of animals) and duration (total time in mins). Core temperature values were expressed as the difference between control temperature (before injection) and temperature following drug administration (Δ°C). […]"}, "mice [2]": {"tested_on": "mice", "assay": "Psychomotor agitation (observational behavioural test)", "format": "in vivo", "experimental": "as §1, §2, §3"}, "SERT": {"tested_on": "SERT", "set-up": "method as in PMID 25331619", "conditions": "rat brain tissue, lower potency than (±)cis-4,4′-DMAR; cited from earlier work"}, "[3]": {"conditions": "10 mg/kg i.p., n=4 mice (animals of the urine excretion study)"}},
  "note": "Marks after values point to notes of the source that are not given here.",
  "data": [
    {"compound": "Cc1ccc(C2OC(N)=NC2C)cc1", "note": "(stereo not drawn) [cis-4,4’-DMAR, 4-methyl-5-(4-methylphenyl)-4,5-dihydrooxazol-2-amine]", "values": [
      {"measurement": "Histology of the frontal cortex (edema, vacuolization areas)", "setting": "frontal cortex", "value": "mild edema"},
      {"measurement": "Aggressiveness Stimulated Frequency % (n° of mice)", "setting": "mice [1]; [3]", "value": "100% (4)"},
      {"measurement": "Aggressiveness Stimulated Score (n° of bites)", "setting": "mice [1]; [3]", "value": "5 ± 0.23 n° of bites"},
      {"measurement": "Aggressiveness Stimulated Frequency % (n° of mice)", "setting": "mice [1]; 10 mg/kg i.p., n=6 mice", "value": "100% (6)"},
      {"measurement": "Aggressiveness Stimulated Score (n° of bites)", "setting": "mice [1]; 10 mg/kg i.p., n=6 mice", "value": "6 ± 0.23 n° of bites"},
      {"measurement": "Aggressiveness Stimulated Frequency % (n° of mice)", "setting": "mice [1]; 30 mg/kg i.p., n=6 mice", "value": "100% (6)"},
      {"measurement": "Aggressiveness Stimulated Score (n° of bites)", "setting": "mice [1]; 30 mg/kg i.p., n=6 mice", "value": "10 ± 0.23 ^b n° of bites"},
      {"measurement": "Spontaneous aggressiveness", "setting": "mice [1]; mice, i.p., 60 mg/kg could not be tested", "value": "not associated with increased levels"},
      {"measurement": "Psychomotor agitation Frequency % (n° of mice)", "setting": "mice [2]; 1 mg/kg i.p., n=6 mice", "value": "ineffective"},
      {"measurement": "Psychomotor agitation Duration", "setting": "mice [2]; 3 mg/kg i.p., n=6 mice", "value": "54.2 ± 10.30", "unit": "min"},
      {"measurement": "Psychomotor agitation Frequency % (n° of mice)", "setting": "mice [2]; 3 mg/kg i.p., n=6 mice", "value": "100% (6)"},
      {"measurement": "Psychomotor agitation Latency", "setting": "mice [2]; 3 mg/kg i.p., n=6 mice", "value": "61.2 ± 6.30", "unit": "min"},
      {"measurement": "Psychomotor agitation, start of effect", "setting": "mice [2]; 10 mg/kg alone, mice", "value": "about thirty"},
      {"measurement": "Psychomotor agitation Duration", "setting": "mice [2]; [3]", "value": "125.0 ± 10.12", "unit": "min"},
      {"measurement": "Psychomotor agitation Frequency % (n° of mice)", "setting": "mice [2]; [3]", "value": "100% (4)"},
      {"measurement": "Psychomotor agitation Latency", "setting": "mice [2]; [3]", "value": "26.4 ± 6.25", "unit": "min"},
      {"measurement": "Psychomotor agitation Duration", "setting": "mice [2]; 10 mg/kg i.p., n=6 mice", "value": "121.0 ± 12.35", "unit": "min"},
      {"measurement": "Psychomotor agitation Duration (min)", "setting": "mice [2]; 10 mg/kg i.p., n=6 mice", "value": "121.0 ± 12.35 ^a min"},
      {"measurement": "Psychomotor agitation Frequency % (n° of mice)", "setting": "mice [2]; 10 mg/kg i.p., n=6 mice", "value": "100% (6)"},
      {"measurement": "Psychomotor agitation Latency", "setting": "mice [2]; 10 mg/kg i.p., n=6 mice", "value": "28.2 ± 7.20", "unit": "min"},
      {"measurement": "Psychomotor agitation Latency (min)", "setting": "mice [2]; 10 mg/kg i.p., n=6 mice", "value": "28.2 ± 7.20 ^a min"},
      {"measurement": "Psychomotor agitation Frequency % (n° of mice)", "setting": "mice [2]; 10 mg/kg i.p., n=6 mice, listed as (±)cis-4,4′-DMAR", "value": 100, "unit": "%"},
      {"measurement": "Psychomotor agitation Duration (min)", "setting": "mice [2]; 30 mg/kg i.p., n=6 mice", "value": "235.1 ± 15.25 ^ab min"},
      {"measurement": "Psychomotor agitation Frequency % (n° of mice)", "setting": "mice [2]; 30 mg/kg i.p., n=6 mice", "value": "100% (6)"},
      {"measurement": "Psychomotor agitation Latency (min)", "setting": "mice [2]; 30 mg/kg i.p., n=6 mice", "value": "3.2 ± 0.25 ^ab min"},
      {"measurement": "Psychomotor agitation Duration (min)", "setting": "mice [2]; 60 mg/kg i.p., n=6 mice", "value": "280.1 ± 12.35 ^ab min"},
      {"measurement": "Psychomotor agitation Frequency % (n° of mice)", "setting": "mice [2]; 60 mg/kg i.p., n=6 mice", "value": "100% (6)"},
      {"measurement": "Psychomotor agitation Latency", "setting": "mice [2]; 60 mg/kg i.p., n=6 mice", "value": "2.2 ± 0.15", "unit": "min"},
      {"measurement": "Psychomotor agitation Latency (min)", "setting": "mice [2]; 60 mg/kg i.p., n=6 mice", "value": "2.2 ± 0.15 ^ab min"},
      {"measurement": "Psychomotor agitation, dose range in which the effect was significant", "setting": "mice [2]; i.p., mice, tested 0.1–60 mg/kg", "value": "3 to 60", "unit": "mg/kg"}
    ]},
    {"compound": "Cc1ccc(C2OC(N)=NC2C)cc1", "note": "(stereo not drawn) [trans-4,4’-DMAR, 4-methyl-5-(4-methylphenyl)-4,5-dihydrooxazol-2-amine]", "values": [
      {"measurement": "Mode of action at SERT", "setting": "SERT", "value": "uptake blocker"}
    ]}
  ]
}
